Common to all, as to type: cell-based
Assay [1] has as its system Corynebacterium jeikum (ATCC 33033). In words: Carbohydrate Screening Test Method (Biolog phenotype microarray), Bacteria Code B. The settings on record: for Carbohydrate Screening Results, Bacteria Code B: Commensal, carbon microarray plate, OD 600 nm, 36 hr, 33° C., positive = more than 0.05 OD units above zero, blank cell = not utilized. Here is the method:
The screening process was set up to determine which carbohydrate sources promoted commensal and/or pathogenic bacteria as well as to obtain individual and combinations of carbohydrate sources that could serve as microbiota balancing agents that can support or maintain the healthy proportions of commensal skin bacteria of Corynebacterium, Staphylococcus, and Micrococcus. The screening was conducted utilizing Biolog phenotype microarray plates (Hayward, Calif.). Table 1 provides a coded list of the commensal and pathogenic skin bacteria that the carbohydrates were screened against.
(§1) The Bacteria Codes B, D, E, I, and J are commensal bacteria and are shaded in Table 2 for references purposes. The bacteria codes were each placed in a carbon microarray plate and screened through the Carbohydrate Screening Test Method, as described in the Test Methods section herein. If a particular bacteria code utilized a specific carbohydrate source as described in the Carbohydrate Screening Test Method, then the corresponding cell in Table 2 was marked with a Y (short for “Yes”).
To do so, the respective microarray data for the 79 carbohydrate sources was run through the GrowthRates 2.1 program to obtain growth parameters, such as growth rates and maximum yield data as described by the Belingham Research Institute, Hall, B. G., H. Acar and M. Barlow. […] Mol. Biol. Evol. […] The max yield parameters generated were utilized to calculate ratios of tested commensal bacteria. The ratios calculated were compared back to the desired ratios identified above (Corynebacterium to Staphylococcus of 1.3, Corynebacterium to Micrococcus of 1.4, and Staphylococcus to Micrococcus of 1.1).
(§2) As an example of this methodology used to calculate the commensal bacteria ratios and the difference between the calculated ratios and the desired ratios, an example code from Table 3 will be described. […] The max yields were then used to calculate ratios the bacteria would reach in a co-culture.
A passage of the culture was made using a sterile swab and streaked onto two M9*2 agar plates to prepare the incubated culture for the phenotype microarray pate according to Table 4.
(§3) All cultures were harvested and washed before inoculation into the carbon microarray plate (BiOLOG, Hayward Calif.), with Biolog Plates PM1 and PM2 each having a source definition of Carbon. The bacteria on the M9*2 agar was suspended via agitation with an inoculating loop in 1 mL of M9*1 media for collection in a 1.7 mL micro centrifuge tube, as noted in Table 4.

Assay [2] relates to Micrococcus luteus (SK58). In words: Carbohydrate Screening Test Method (Biolog phenotype microarray), Bacteria Code E. The note with it: for Carbohydrate Screening Results, Bacteria Code E: Commensal, carbon microarray plate, OD 600 nm, 36 hr, 33° C., positive = more than 0.05 OD units above zero, blank cell = not utilized.
Description: (§4) After creating desired ratios of various commensal skin bacteria in a healthy skin microbiome, 188 different carbohydrate sources were screened as the next step in determining potential prospects for skin microbiota balancing agents. The screening process was set up to determine which carbohydrate sources promoted commensal and/or pathogenic bacteria as well as to obtain individual and combinations of carbohydrate sources that could serve as microbiota balancing agents that can support or maintain the healthy proportions of commensal skin bacteria of Corynebacterium, Staphylococcus, and Micrococcus. The screening was conducted utilizing Biolog phenotype microarray plates (Hayward, Calif.). Table 1 provides a coded list of the commensal and pathogenic skin bacteria that the carbohydrates were screened against.
as §1
To do so, the respective microarray data for the 79 carbohydrate sources was run through the GrowthRates 2.1 program to obtain growth parameters, such as growth rates and maximum yield data as described by the Belingham Research Institute, Hall, B. G., H. Acar and M. Barlow. 2014 Growth Rates Made Easy. Mol. Biol. Evol. 31:232-238 doi:10.1093/molbev/mst197. The max yield parameters generated were utilized to calculate ratios of tested commensal bacteria. The ratios calculated were compared back to the desired ratios identified above (Corynebacterium to Staphylococcus of 1.3, Corynebacterium to Micrococcus of 1.4, and Staphylococcus to Micrococcus of 1.1).
as §2

In assay [3] the test system is Klebsiella pneumoniae (ATCC BAA-2146). The note with it: Pathogenic; carbon microarray plate, OD 600 nm, 36 hr, 33° C.; positive = more than 0.05 OD units above zero; blank cell = not utilized.
Description: as §4
Table 2 provides the results of screening various carbohydrate sources against the commensal and pathogenic bacteria codes listed in Table 1. The Bacteria Codes B, D, E, I, and J are commensal bacteria and are shaded in Table 2 for references purposes. The bacteria codes were each placed in a carbon microarray plate and screened through the Carbohydrate Screening Test Method, as described in the Test Methods section herein. If a particular bacteria code utilized a specific carbohydrate source as described in the Carbohydrate Screening Test Method, then the corresponding cell in Table 2 was marked with a Y (short for “Yes”). […] Many of the carbohydrate sources were utilized by both commensal and pathogenic bacteria, and as such, would not provide an advantage for selective growth of the commensal bacteria. However, some of the carbohydrate sources were only used by commensal bacteria and were identified for further testing as described herein.
The study employed 10 representative skin bacteria; Staphylococcus epidermidis ATCC 14990, Staphylococcus epidermidis M23864:W2, Staphylococcus aureus ATCC 6538, Staphylococcus aureus ATCC 25904 (Newman), Pseudomonas aeruginosa ATCC 9027, Micrococcus luteus ATCC […], Micrococcus luteus SK58, Klebsiella pneumoniae ATCC BAA-2146, Corynebacterium amycolatum SK46, and Corynebacterium minutissimum ATCC 23348. Cultures were started from freezer bead stocks by placing a single bead into 20 mL of tryptic soy broth (TSB) for all organisms except C. amycolatum SK46 and C. minutissimum ATCC 23348, which were placed into brain heart infusion (BHI) broth. Cultures were grown for about 24 hr at 37° C. except M. luteus ATCC 49732 and M. luteus SK58, which were grown at 30° C. A passage of the culture was made using a sterile swab and streaked onto two M9*2 agar plates to prepare the incubated culture for the phenotype microarray pate according to Table 4. Plates were incubated for about 24 hr at 37° C. except for M. luteus ATCC 49732 and M. luteus SK58, which were incubated at 30° C. for 24 hr.
as §3, with “4. The bacteria was suspended again in M9*1 media, agitated, and collected into the same 1.7 mL microcentrifuge tube used in the previous step. The tube was centrifuged for 5 minutes at 4,000×G, supernatant decanted, the pellet was resuspended in 1 mL of M9*1 media, and vortex. This washing process was repeated for a total of 4 times.” for “4.”
A tenfold dilution in M9*1 media was performed using 1 mL of the washed bacterial culture. Of the tenfold dilution 200 μL was placed in an untreated 96-well plate (Falcon, Pasadena Tx.) for an initial optical density (OD) reading at a wavelength of 600 nm. The OD was used to correlate to colony forming units (CFU) per milliliter by using linear regression lines for each organism. […]

Where a SMILES comes first, the peptide text is derived from it.

For `CC(O)CO` (centres unmarked) [1,2-Propanediol], the “Carbohydrate Screening Results, Bacteria Code B” value in assay [1] is “Y”. Besides, the “Carbohydrate Screening Results, Bacteria Code E” value in assay [2] was “Y”.
In the case of `O=C[C@@H](O)[C@H](O[C@@H]1O[C@H](CO)[C@H](O)[C@H](O)[C@H]1O)[C@H](O)CO` [3-0-β-D-Galacto-pyranosyl-D-Arabinose], the “Carbohydrate Screening Results, Bacteria Code C” value in assay [3] is listed as “Y”.
On to `CC(=O)CC(=O)O` [Acetoacetic Acid], for which the “Carbohydrate Screening Results, Bacteria Code B” value in assay [1] is on record as “Y”. In addition, the “Carbohydrate Screening Results, Bacteria Code E” value in assay [2] is “Y”.
Take `Nc1ncnc2c1ncn2[C@@H]1O[C@H](CO)[C@@H](O)[C@H]1O` [Adenosine]: the “Carbohydrate Screening Results, Bacteria Code B” value in assay [1] is reported as “Y”. Also, the “Carbohydrate Screening Results, Bacteria Code E” value in assay [2] is reported as “Y”.
For `OC[C@H]1O[C@@H](Oc2ccc(O)cc2)[C@H](O)[C@@H](O)[C@@H]1O` [Arbutin], the “Carbohydrate Screening Results, Bacteria Code C” value in assay [3] is reported as “Y”.
With `O=C(O)CC(Br)C(=O)O` (centres unmarked) [Bromo Succinic Acid], in assay [1], the “Carbohydrate Screening Results, Bacteria Code B” value is “Y”.
The same measure, in the same setting: as for `O=C(O)CC(O)(CC(=O)O)C(=O)O` [Citric Acid], the entry is “Y”.
For the molecule `C[C@@H](N)C(=O)O` [D-Alanine], the max yield in assay [1] (C. jeikeium, GrowthRates 2.1 on microarray data) was determined as 0.157; in assay [2] (M. luteus SK58, GrowthRates 2.1 on microarray data) it was 0.098. Further, the “Carbohydrate Screening Results, Bacteria Code B” value in assay [1] is “Y”. Moreover, in assay [2], the “Carbohydrate Screening Results, Bacteria Code E” value is listed as “Y”.
Consider `N[C@H](CC(=O)O)C(=O)O` [D-Aspartic Acid], for which the “Carbohydrate Screening Results, Bacteria Code B” value in assay [1] is on record as “Y”. The “Carbohydrate Screening Results, Bacteria Code E” value in assay [2] was “Y”.
In the case of `N[C@@H](C(=O)O)[C@@H](O)[C@H](O)[C@H](O)CO` [D-Glucosaminic Acid], in assay [2], the “Carbohydrate Screening Results, Bacteria Code E” value is recorded as “Y”.
With `COC(=O)[C@@H](C)O` [D-Lactic Acid Methyl Ester], the “Carbohydrate Screening Results, Bacteria Code C” value in assay [3] is “Y”.
In the case of `C[C@H](O)[C@@H](N)C(=O)O` [D-Threonine], in assay [1], the “Carbohydrate Screening Results, Bacteria Code B” value is on record as “Y”. Also, the “Carbohydrate Screening Results, Bacteria Code E” value in assay [2] is recorded as “Y”.
Take `OC[C@@H](O)[C@H](O)[C@H](O)[C@@H](O)CO` [Dulcitol]: the “Carbohydrate Screening Results, Bacteria Code B” value in assay [1] is reported as “Y”. The “Carbohydrate Screening Results, Bacteria Code E” value in assay [2] is on record as “Y”.
On to `O=CO` [Formic Acid], for which, in assay [1], the “Carbohydrate Screening Results, Bacteria Code B” value is reported as “Y”. In assay [2], the “Carbohydrate Screening Results, Bacteria Code E” value is on record as “Y”.
Consider `O=C(O)/C=C/C(=O)O` [Fumaric Acid], for which, in assay [1], the “Carbohydrate Screening Results, Bacteria Code B” value is “Y”. For the same molecule, the “Carbohydrate Screening Results, Bacteria Code E” value in assay [2] is recorded as “Y”.
With `NC(=O)[C@@H](O)[C@@H](O)[C@H](O)[C@@H](O)C=O` [Glucuronamide], the “Carbohydrate Screening Results, Bacteria Code B” value in assay [1] is reported as “Y”. Further, the “Carbohydrate Screening Results, Bacteria Code E” value in assay [2] is given as “Y”.
On to `O=C(O)CO` [Glycolic Acid], for which the “Carbohydrate Screening Results, Bacteria Code B” value in assay [1] is reported as “Y”. Moreover, the “Carbohydrate Screening Results, Bacteria Code E” value in assay [2] is given as “Y”.
Turning to `NCC(=O)N[C@@H](CC(=O)O)C(=O)O` [Glycyl-L-Aspartic Acid] (H-Gly-Asp-OH), the “Carbohydrate Screening Results, Bacteria Code E” value in assay [2] is listed as “Y”.
On the same count and under the same terms, as for `NCC(=O)N[C@@H](CCC(=O)O)C(=O)O` [Glycyl-L-Glutamic Acid] (H-Gly-Glu-OH), the entry is “Y”.
For the molecule `O=CC(=O)O` [Glyoxylic Acid], in assay [1], the “Carbohydrate Screening Results, Bacteria Code B” value is “Y”.
Turning to `C[C@H](N)C(=O)O` [L-Alanine], in assay [2], the “Carbohydrate Screening Results, Bacteria Code E” value is given as “Y”.
Take `C[C@H](N)C(=O)NCC(=O)O` [L-Alanyl-Glycine] (H-Ala-Gly-OH): the “Carbohydrate Screening Results, Bacteria Code B” value in assay [1] is “Y”. For the same molecule, the “Carbohydrate Screening Results, Bacteria Code E” value in assay [2] is “Y”.
In the case of `O=C(O)C[C@H](O)C(=O)O` [L-Malic Acid], the “Carbohydrate Screening Results, Bacteria Code B” value in assay [1] was “Y”. In addition, the “Carbohydrate Screening Results, Bacteria Code E” value in assay [2] is “Y”.
Take `O=C(O)[C@@H]1CCCN1` [L-Proline]: in assay [1], the “Carbohydrate Screening Results, Bacteria Code B” value was “Y”. Also, the “Carbohydrate Screening Results, Bacteria Code E” value in assay [2] is reported as “Y”.
For the molecule `C[C@@H](O)[C@H](N)C(=O)O` [L-Threonine], the “Carbohydrate Screening Results, Bacteria Code B” value in assay [1] is on record as “Y”. For the same molecule, in assay [2], the “Carbohydrate Screening Results, Bacteria Code E” value was “Y”.
`O=C(O)[C@@H](O)[C@H](O)[C@H](O)[C@@H](O)C(=O)O` [Mucic Acid]: in assay [1], the “Carbohydrate Screening Results, Bacteria Code B” value is recorded as “Y”.
Consider `CC(=O)N[C@H]1[C@@H](O)[C@H](O)[C@@H](CO)O[C@H]1O` [N-Acetyl-β-D-Mannosamine], for which the “Carbohydrate Screening Results, Bacteria Code B” value in assay [1] is “Y”. Besides, in assay [2], the “Carbohydrate Screening Results, Bacteria Code E” value was “Y”.
`NCCc1ccccc1` [Phenylethyl-amine]: the “Carbohydrate Screening Results, Bacteria Code B” value in assay [1] is reported as “Y”.
As to `CCC(=O)O` [Propionic Acid], in assay [1], the “Carbohydrate Screening Results, Bacteria Code B” value is given as “Y”. In addition, in assay [2], the “Carbohydrate Screening Results, Bacteria Code E” value is “Y”.
`O=C(O)CC(CC(=O)O)C(=O)O` [Tricarballylic Acid]: the “Carbohydrate Screening Results, Bacteria Code E” value in assay [2] is on record as “Y”.
Take `O=C(O)C(O)C(O)C(=O)O` (centres unmarked) [m-Tartaric Acid]: the “Carbohydrate Screening Results, Bacteria Code B” value in assay [1] was “Y”.
Same read-out and setting: for `CCC(O)C(=O)O` (stereo not drawn) [α-Hydroxy Butyric Acid] the value was “Y”.
In the case of `O=C1CCC(C(=O)O)O1` (stereo not drawn) [α-Hydroxy Glutaric Acid-γ-Lactone], the “Carbohydrate Screening Results, Bacteria Code B” value in assay [1] is “Y”. Moreover, in assay [2], the “Carbohydrate Screening Results, Bacteria Code E” value is given as “Y”.
For the molecule `CCC(=O)C(=O)O` [α-Keto-Butyric Acid], the “Carbohydrate Screening Results, Bacteria Code B” value in assay [1] is recorded as “Y”.
Still for that read-out and setting: for `O=C(O)CCC(=O)C(=O)O` [α-Keto-Glutaric Acid] the value was “Y”; for Tween 40, “Y”.

The values above are taken from patent US20210308034A1, “PREBIOTIC COMPOSITIONS AND METHODS FOR MAINTAINING A HEALTHY SKIN MICROBIOTA” (KIMBERLY-CLARK WORLDWIDE, INC., priority 2018, published 2021).
